Results taken from US11878008B2, “Composition for preventing or treating atopic dermatitis” (AMOREPACIFIC CORPORATION, priority 2017, dated 2024).
“Also recorded” adds a separate entry of the source.

Tests used:
[1] = C57BL/6, mouse, in vivo, 2 h
Protocol: As described above, AMG 517, a representative reference drug as a TRPV1 antagonist, and the compound of Formula 1 of the present invention were tested for the increase in body temperature during transdermal administration.

[2] = Change in body temperature after oral administration in mice; format: in vivo, Balb/c mice; details: for change in body temperature, dose dependence: up to 4 hours, AMG 517 0.03, 0.1, 0.3 mg/kg, compound of Formula 1 3, 10, 30 mg/kg, FIGS. 2A, 2B
Text: Meanwhile, when the same drug was orally administered, a concentration-dependent increase in body temperature due to TRPV1 antagonism was observed as expected (see FIGS. 2A and 2B).

[3] = rats, oral dose of 3 mg/kg; cited from earlier work
[4] = rats; cited from earlier work
[5] = cited from earlier work
[6] = Change in body temperature in healthy volunteers after percutaneous administration; format: in vivo, human; details: percutaneous application to back skin, 7 to 30 days
Text: The composition of Example 1 including the compound of Formula 1 was percutaneously applied to healthy volunteers other than the patients with atopic dermatitis to check a change in body temperature.
The 24 healthy adult volunteers were divided into three groups, and the volunteers in each of the groups were then randomly allocated into a test group of 6 volunteers (Example 1) and a placebo group of 2 volunteers (Comparative Example 1). The same clinician applied the composition onto the volunteers' back skins at a dose of 5, 15, 50 mg per 5 g every morning according to a predetermined administration method. In this case, the composition was applied for 7, 15, 30 days with a size of 25×40 cm and an area of 1,000 cm^2.
A range of the body temperatures measured for the 24 volunteers in a clinical trial period was in a range of 35.4 to 37.3° C. The results of the changes in body temperatures from the baseline before the drug administration in each of the groups are as listed in the following Table 13.

[7] = Change in body temperature in healthy volunteers after oral administration; format: in vivo, human; details: oral 5 mg or 10 mg once a day for 8 days; healthy adult volunteers; FIGS. 6A, 6B
Protocol: Ten healthy adult volunteers were divided into two groups, and the compound of Formula 1 was orally administered to the volunteers in each of the groups at a dose of 5 mg or 10 mg once a day for 8 days. Thereafter, a placebo was administered to the two volunteers in each of the groups, and the body temperatures were measured for 14 days. Then, the mean body temperature of the volunteers and a change in body temperature were determined.

Structure (SMILES) | increase in body temperature [1] [°C] | change in body temperature at lowest dose ([2]; 0.03 mg/kg) | change in body temperature, dose dependence [2] | body temperature increase [3] | effective concentration to maximize analgesic efficacy [4] | concentration dependence of hyperthermia ([5]; oral administration for treatment of dental pain/toothache) | body temperature increased to ([5]; oral, group administered a dose of 25 mg) [°C] | clinically significant findings associated with changes in body temperature [6] | body temperature change, dose dependence [7]
CC(=O)Nc1nc2c(Oc3cc(-c4ccc(C(F)(F)F)cc4)ncn3)cccc2s1 [AMG 517] | ~1.59 | significantly increased body temperature | increased body temperature in a dose-dependent manner | about 1.3 °C | less than 0.3 mg/kg | concentration-dependent side effect of hyperthermia; also recorded: increased body temperature, which was proportional to a serum AMG 517 concentration | 39.9 |  | 
CCCc1nc(C(F)(F)F)ccc1/C=C/C(=O)N[C@H](C)c1cc(F)c(NS(C)(=O)=O)c(F)c1 [compound of Formula 1, (R)-N-[1-(3,5-difluoro-4-methanesulfonylamino-phenyl)-ethyl]-3-(2-propyl-6-trifluoromethyl-pyridin-3-yl)-acrylamide] | ~0.84 |  | increased body temperature in a dose-dependent manner |  |  |  |  | such an increase in body temperature was not observed | increased the body temperature in a dose-dependent manner; also recorded: increased body temperature (hyperthermia) were caused in a concentration-dependent manner
